How the values were obtained:
[1] = tested on: PD1-ss+10aa/Gaussia Luciferase; test: Dox-Induced PD1-ss-Gluc Assay; type: cell-based; conditions: 24 hr Dox induction; 293FRT/TO cells; mean; read-out: 24 hr Dox Inducible PD1ssGluc 293FRT/TO: Mean IC50
In short: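 Doxycycline-induced expression of a PD1-ss+10aa/Gaussia luciferase reporter is measured in stable Flp-In 293 T-REx cells. Compound dilutions containing doxycycline are added one day after plating and incubated at 37 °C, 5% CO2. Values for unassigned stereocentres refer to stereoisomer mixtures.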

[2] = tested on: TNFα-FL/Gaussia Luciferase; test: Dox Induced TNFα-FL-Gluc Assay; type: cell-based; conditions: for IC50: 24 hr Dox induction, 293FRT/TO cells, mean, read-out: 24 hr Dox Inducible TNFaFLGluc 293FRT/TO: Mean IC50; for 24 hr Dox Inducible TNFaFLGluc 293FRT/TO: TNF/PD1: ratio of TNFaFLGluc IC50 to PD1ssGluc IC50, '<=>' given where both are I.A.
In short: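 Compound was added with doxycycline to cells plated a day earlier, incubating at 37° C under 5% CO2. The reporter line is 293 T-REx expressing a TNFα (1-233)–Gaussia luciferase fusion under tetracycline-regulated control.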

[3] = tested on: HER3-ss+4aa/Gaussia Luciferase; test: Dox-Induced Her3-ss-Gluc Assay; type: cell-based; conditions: 24 hr Dox induction; 293FRT/TO cells; mean; read-out: 24 hr Dox Inducible Her3(ss + 4)Gluc 293FRT/TO: Mean IC50
In short: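 Compounds were diluted in DMSO/media containing doxycycline. They were added to Flp-In 293 T-REx cells plated the previous day, then incubated at 37 °C under 5% CO2. These cells stably express, under T-REx control, Gaussia luciferase fused to the HER3 signal sequence plus 4 amino acids.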

[4] = tested on: IL-2-FL/Gaussia Luciferase; test: Dox Induced IL2-FL-Gluc Assay; type: cell-based; conditions: for IC50: 24 hr Dox induction, 293FRT/TO cells, mean, read-out: 24 hr Dox Inducible IL2FLGluc 293FRT/TO: Mean IC50; for 24 hr Dox Inducible IL2FLGluc 293FRT/TO: IL2/PD1: ratio of IL2FLGluc IC50 to PD1ssGluc IC50, '<=>' given where both are I.A.
In short: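 Compounds in DMSO/medium with doxycycline were applied to a 293 T-REx stable line expressing an IL-2 (aa 1-153)–Gaussia luciferase fusion under tetracycline-regulated control, cells seeded one day earlier; incubation at 37 °C, 5% CO2. Structures drawn without stereochemistry were tested as stereoisomer mixtures.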

[5] = tested on: multiple myeloma cell line NCI-H929; test: H929 Cell Viability Assay; type: cell-based, human; conditions: Homo sapiens, NCI-H929, 48 h, NCI-H929 cells, Celltiter-Glo
In short: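 Luminescent CellTiter-Glo read-out of viability after a 48 h exposure (37° C, 5% CO2) of NCI-H929 myeloma cells to compound dilutions in RPMI 1640 plus 10% FBS. Data for structures drawn without stereochemistry refer to stereoisomer mixtures.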

[6] = tested on: multiple myeloma cell line U266B1; test: U266 Cell Viability Assay; type: cell-based, human; conditions: Homo sapiens, U-266, 48 h, U266B1 cells, Celltiter-Glo
In short: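 CellTiter-Glo luminescence was read after a 48 h compound exposure (37 °C, 5% CO2) of human U266B1 myeloma cells grown in 10% FBS-supplemented RPMI 1640. Data for structures shown without defined stereochemistry refer to stereoisomer mixtures.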

[7] = Liver Microsome Stability Assay (rat); conditions: rat liver microsomes, with NADPH, 1.0 uM compound
Protocol: (§1) Stability of a compound was assessed in the presence of liver microsomes from various sources—mouse, rat, monkey and human liver microsomes. 1.0 uM compound, 0.4% DMSO in 0.1 M Potassium Phosphate with 1.0 mg/mL liver microsomes, were incubated at 37° C. with or without 1 mM NADPH. The samples were quenched at 0, and 30 minutes.

[8] = Liver Microsome Stability Assay (mouse); conditions: mouse liver microsomes, with NADPH, 1.0 uM compound
Protocol: as §1

[9] = Liver Microsome Stability Assay (human); conditions: human liver microsomes, with NADPH, 1.0 uM compound
Protocol: as §1

[10] = Liver Microsome Stability Assay (monkey); conditions: monkey liver microsomes, with NADPH, 1.0 uM compound
Protocol: as §1

Row | Compound | IC50 [1] [µM] | IC50 [2] [µM] | IC50 [3] [µM] | IC50 [4] [µM] | EC50 [5] [µM] | EC50 [6] [µM] | Liver Microsome Stability (Multiple Species): Rat - % Remaining after 30 min w/NADPH [7] [%] | Liver Microsome Stability (Multiple Species): Mouse - % Remaining after 30 min w/NADPH [8] [%] | Liver Microsome Stability (Multiple Species): Human - % Remaining after 30 min w/NADPH [9] [%] | Liver Microsome Stability (Multiple Species): Monkey - % Remaining after 30 min w/NADPH [10] [%] | 24 hr Dox Inducible TNFaFLGluc 293FRT/TO: TNF/PD1 [2] | 24 hr Dox Inducible IL2FLGluc 293FRT/TO: IL2/PD1 [4]
1 | O=C(Nc1nc(C2C3CN(c4ccccn4)CC32)cs1)c1cccn1Cc1ccncc1 (stereo not drawn) [Compound E33, N-(4-(3-(pyridin-2-yl)-3-azabicyclo[3.1.0]hexan-6-yl)thiazol-2-yl)-1-(pyridin-4-ylmethyl)-1H-pyrrole-2-carboxamide] | 1.23 | > 25 | 3.92 | 14.8 | > 25 | > 25 | 0.18 | 2.58 | 1.6 | 0.1 | >20.3 | 12
2 | COc1ccc(O[C@H]2CC[C@H](c3csc(NC(=O)c4cccn4Cc4ccncc4)n3)CC2)nc1 [Compound E34, N-(4-((1r,4r)-4-((5-methoxypyridin-2-yl)oxy)cyclohexyl)thiazol-2-yl)-1-(pyridin-4-ylmethyl)-1H-pyrrole-2-carboxamide] | 0.312 | 8.14 | 0.648 | 2.6 | 19.6 | 7.92 | 0.26 | 0.06 | 0.19 | 3.44 | 26.1 | 8.3
3 | COc1ccc(O[C@H]2CC[C@@H](c3csc(NC(=O)c4cccn4Cc4ccncc4)n3)CC2)nc1 [Compound E35, N-(4-((1s,4s)-4-((5-methoxypyridin-2-yl)oxy)cyclohexyl)thiazol-2-yl)-1-(pyridin-4-ylmethyl)-1H-pyrrole-2-carboxamide] | 0.148 | 4.83 | 0.388 | 0.927 | 8.64 | 18.2 | 1.2 | 0.08 | 0.41 | 0.7 | 32.6 | 6.3
4 | O=C(Nc1nc(C2C3CN(c4ccccc4)CC32)cs1)c1cccn1Cc1ccncc1 (stereo not drawn) [Compound E36, N-(4-(3-phenyl-3-azabicyclo[3.1.0]hexan-6-yl)thiazol-2-yl)-1-(pyridin-4-ylmethyl)-1H-pyrrole-2-carboxamide] | 0.284 | 5.07 | 0.89 | 1.71 | > 25 | 13.8 | 1.49 | 27.8 | 1.63 | 0.83 | 17.8 | 6
5 | O=C(Nc1nc(C2Cc3cccnc3C2)cs1)c1cccn1Cc1ccncc1 (stereo not drawn) [Compound E37, N-(4-(6,7-dihydro-5H-cyclopenta[b]pyridin-6-yl)thiazol-2-yl)-1-(pyridin-4-ylmethyl)-1H-pyrrole-2-carboxamide] | 2.9 | > 25 | 8.04 | 16.5 | > 25 | > 25 | 0.34 | 0.18 | 0.08 | 0.08 | >8.63 | 5.7

Further compounds by falling IC50 [1], results first:

Row | IC50 [1] [µM] | IC50 [2] [µM] | IC50 [3] [µM] | IC50 [4] [µM] | EC50 [5] [µM] | EC50 [6] [µM] | Liver Microsome Stability (Multiple Species): Rat - % Remaining after 30 min w/NADPH [7] [%] | Liver Microsome Stability (Multiple Species): Mouse - % Remaining after 30 min w/NADPH [8] [%] | Liver Microsome Stability (Multiple Species): Human - % Remaining after 30 min w/NADPH [9] [%] | Liver Microsome Stability (Multiple Species): Monkey - % Remaining after 30 min w/NADPH [10] [%] | Compound | 24 hr Dox Inducible TNFaFLGluc 293FRT/TO: TNF/PD1 [2] | 24 hr Dox Inducible IL2FLGluc 293FRT/TO: IL2/PD1 [4]
6 | 1.02 | 7.08 | 3.06 | 3.94 | 24.9 | > 25 | 0.79 | 3.3 | 0.21 | 0.09 | O=C(Nc1nc([C@H]2C[C@@H](OCCO)CN2c2ccccc2)cs1)c1cccn1Cc1ccncc1 [Compound E32] | 6.91 | 3.9
7 | 0.493 | 5.28 | 1.12 | 1.87 | 23.8 | 23 | 0.33 | 0.25 | 0.1 | 0.13 | COc1ccc(O[C@H]2CC[C@H](c3csc(NC(=O)c4cccn4Cc4ccncc4)n3)C2)nc1 [Compound E38, N-(4-((1S,3S)-3-((5-methoxypyridin-2-yl)oxy)cyclopentyl)thiazol-2-yl)-1-(pyridin-4-ylmethyl)-1H-pyrrole-2-carboxamide] | 10.7 | 3.8
8 | 0.32 | 2.05 | 0.645 | 0.771 | 6.73 | > 25 | 1.43 | 2.75 | 0.43 | 0.1 | CC(=O)N1CCC(O[C@@H]2C[C@H](c3csc(NC(=O)c4cccn4Cc4ccncc4)n3)N(c3ccccc3)C2)CC1 [Compound E40, N-(4-((2R,4R)-4-((1-acetylpiperidin-4-yl)oxy)-1-phenylpyrrolidin-2-yl)thiazol-2-yl)-1-(pyridin-4-ylmethyl)-1H-pyrrole-2-carboxamide] | 6.42 | 2.4
9 | 0.159 | 1.65 | 0.344 | 0.449 | 8.43 | 13.9 | 1.17 | 0.23 | 0.34 | 0.19 | COc1ccc(O[C@@H]2CCC[C@H](c3csc(NC(=O)c4cccn4Cc4ccncc4)n3)C2)nc1 [Compound E39, N-(4-((1S,3R)-3-((5-methoxypyridin-2-yl)oxy)cyclohexyl)thiazol-2-yl)-1-(pyridin-4-ylmethyl)-1H-pyrrole-2-carboxamide] | 10.3 | 2.8

From patent publication US20230286973A1, “PROTEIN SECRETION INHIBITORS” (KEZAR LIFE SCIENCES, priority 2020, published 2023)
